Several values for one entry are separate records, joined by “and”; a condition that tells them apart may be missing. Identical values can stand only once.
Legend:
B16 [1] = assay: Antitumor activity against subcutaneously B16 melanoma cells in mice expressed as ratio of median survival time for treated group to that of control group at an optimal dose of 0.4 mg/kg; format: functional, Mus musculus; details: route subcutaneous
B16 [2] = assay: Antitumor activity against subcutaneously B16 melanoma cells in mice at an optimal dose of 0.4 mg/kg expressed as […] effective dose; format: functional; details: Mus musculus, B16, sc, route subcutaneous, read-out: MED
P388 [3] = assay: Antitumor activity against intraperitoneally implanted P388 leukemia cells in mice at an optimal dose of 1.6 mg/kg expressed as […] effective dose; format: functional; details: Mus musculus, P388, ip, route intraperitoneal, read-out: MED
[4] = Partition coefficient (logP); format: physicochemical; details: octanol/water
P388 [5] = assay: Antitumor activity against intraperitoneally implanted P388 leukemia cells in mice expressed as ratio of median survival time for treated group to that of control group at an optimal dose of 1.6 mg/kg; format: functional, Mus musculus; details: route intraperitoneal
B16 [6] = assay: Antitumor activity against subcutaneously B16 melanoma cells in mice expressed as ratio of median survival time for treated group to that of control group at an optimal dose of 1.2 mg/kg; format: functional, Mus musculus; details: route subcutaneous
P388 [7] = assay: Antitumor activity against intraperitoneally implanted P388 leukemia cells in mice expressed as ratio of median survival time for treated group to that of control group at an optimal dose of 0.4 mg/kg; format: functional, Mus musculus; details: route intraperitoneal
B16 [8] = assay: Antitumor activity against subcutaneously B16 melanoma cells in mice at an optimal dose of 1.2 mg/kg expressed as […] effective dose; format: functional; details: Mus musculus, B16, sc, route subcutaneous, read-out: MED
P388 [9] = assay: Antitumor activity against intraperitoneally implanted P388 leukemia cells in mice at an optimal dose of 3.2 mg/kg expressed as […] effective dose; format: functional; details: Mus musculus, P388, ip, route intraperitoneal, read-out: MED
P388 [10] = assay: Antitumor activity against intraperitoneally implanted P388 leukemia cells in mice expressed as ratio of median survival time for treated group to that of control group at an optimal dose of 3.2 mg/kg; format: functional, Mus musculus; details: route intraperitoneal
P388 [11] = assay: Antitumor activity against intraperitoneally implanted P388 leukemia cells in mice at an optimal dose of 0.8 mg/kg expressed as […] effective dose; format: functional; details: Mus musculus, P388, ip, route intraperitoneal, read-out: MED
P388 [12] = assay: Antitumor activity against intraperitoneally implanted P388 leukemia cells in mice expressed as ratio of median survival time for treated group to that of control group at an optimal dose of 0.8 mg/kg; format: functional, Mus musculus; details: route intraperitoneal
B16 [13] = assay: (§1) Antitumor activity against subcutaneously B16 melanoma cells in mice expressed as ratio of median survival time for treated group to that of control group at an optimal dose of 0.6 mg/kg; format: functional, Mus musculus; details: route subcutaneous
B16 [14] = assay: (§2) Antitumor activity against subcutaneously B16 melanoma cells in mice expressed as ratio of median survival time for treated group to that of control group at an optimal dose of 1-3 mg/kg; format: functional, Mus musculus
B16 [15] = assay: as §1; format: functional, Mus musculus; details: route subcutaneous; remark: listed apart in the source
B16 [16] = assay: Antitumor activity against subcutaneously B16 melanoma cells in mice at an optimal dose of 0.6 mg/kg expressed as […] effective dose; format: functional, Mus musculus; details: route subcutaneous
B16 [17] = assay: Antitumor activity against subcutaneously B16 melanoma cells in mice expressed as ratio of median survival time for treated group to that of control group at an optimal dose of 0.8 mg/kg; format: functional, Mus musculus; details: route subcutaneous
B16 [18] = assay: Antitumor activity against subcutaneously B16 melanoma cells in mice at an optimal dose of 0.8 mg/kg expressed as […] effective dose; format: functional, Mus musculus; details: route subcutaneous; for minimal effective dose at 0.8 mg/kg: Mus musculus, B16, sc, read-out: MED
P388 [19] = assay: Antitumor activity against intraperitoneally implanted P388 leukemia cells in mice at an optimal dose of 0.8 mg/kg gexpressed as […] effective dose; format: functional; details: Mus musculus, P388, ip, route intraperitoneal, read-out: MED
B16 [20] = assay: as §2; format: functional, Mus musculus; remark: listed apart in the source
B16 [21] = assay: Antitumor activity against subcutaneously B16 melanoma cells in mice expressed as ratio of median survival time for treated group to that of control group at an optimal dose of 0.3 mg/kg; format: functional, Mus musculus; details: route subcutaneous
B16 [22] = assay: Antitumor activity against subcutaneously B16 melanoma cells in mice at an optimal dose of 0.3 mg/kg expressed as […] effective dose; format: functional; details: Mus musculus, B16, sc, route subcutaneous, read-out: MED
B16 [23] = assay: Antitumor activity against subcutaneously B16 melanoma cells in mice expressed as […] effective dose at an optimal dose of 0.8 mg/kg; format: functional; details: Mus musculus, B16, sc, route subcutaneous, read-out: MED
P388 [24] = assay: Antitumor activity against intraperitoneally implanted P388 leukemia cells in mice at an optimal dose of 0.4 mg/kg expressed as […] effective dose; format: functional, Mus musculus; details: Mus musculus, P388, ip, route intraperitoneal, read-out: MED
B16 [25] = assay: Antitumor activity against subcutaneously B16 melanoma cells in mice at an optimal dose of 1.6 mg/kg expressed as […] effective dose; format: functional; details: Mus musculus, B16, sc, route subcutaneous, read-out: MED
B16 [26] = assay: Antitumor activity against subcutaneously B16 melanoma cells in mice expressed as ratio of median survival time for treated group to that of control group at an optimal dose of 1.6 mg/kg; format: functional, Mus musculus; details: route subcutaneous

## CCOCCOCCOC1=C(C)C(=O)C2=C(C1=O)C(COC(N)=O)[C@@]1(OC)C3NC3CN21 (some centres not stated)
B16 [1]
  T/C: 196%
B16 [2]
  minimal effective dose at 0.4 mg/kg: 0.2 mg/kg
P388 [3]
  minimal effective dose at 1.6 mg/kg: < 0.1 mg/kg
[4]
  logP: 0.82
P388 [5]
  T/C: 167%

## CO[C@@]12C(COC(N)=O)C3=C(C(=O)C(C)=C(OCCC#N)C3=O)N1CC1NC12 (some centres not stated)
B16 [6]
  T/C: 141%
P388 [7]
  T/C: 200%
B16 [8]
  minimal effective dose at 1.2 mg/kg: 0.8 mg/kg

## CO[C@@]12C(COC(N)=O)C3=C(C(=O)C(C)=C(OCCCCl)C3=O)N1CC1NC12 (some centres not stated)
P388 [9]
  minimal effective dose at 3.2 mg/kg: 0.2 mg/kg
P388 [10]
  T/C: 150%
[4]
  logP: 1.65

## CO[C@@]12C(COC(N)=O)C3=C(C(=O)C(C)=C(OCCSCCO)C3=O)N1CC1NC12 (some centres not stated)
P388 [11]
  minimal effective dose at 0.8 mg/kg: < 0.1 mg/kg
[4]
  logP: 1.07
P388 [12]
  T/C: 250%

## CO[C@@]12C(COC(N)=O)C3=C(C(=O)C(C)=C(OCC4CCC4)C3=O)N1CC1NC12 (some centres not stated)
P388 [3]
  minimal effective dose at 1.6 mg/kg: 0.4 mg/kg
[4]
  logP: 2.26
P388 [5]
  T/C: 144%

## CO[C@@]12C(COC(N)=O)C3=C(C(=O)C(C)=C(OCCO)C3=O)N1CC1C2N1C (some centres not stated)
P388 [9]
  minimal effective dose at 3.2 mg/kg: 0.05 mg/kg
P388 [10]
  T/C: 222%
[4]
  logP: 0.67

## CO[C@@]12C(COC(N)=O)C3=C(C(=O)C(C)=C(OCC4COC(C)(C)O4)C3=O)N1CC1NC12 (some centres not stated)
B16 [13]
  T/C: 221%
B16 [14]
  T/C: 133% and 147% and 170%
B16 [15]
  T/C: 240%
B16 [16]
  MED: <0.3 mg/kg and 0.1 mg/kg
B16 [17]
  T/C: 198%
[4]
  logP: 0.82
B16 [18]
  minimal effective dose at 0.8 mg/kg: 0.4 mg/kg
P388 [12]
  T/C: 178%
P388 [19]
  minimal effective dose at 0.8 mg/kg: < 0.05 mg/kg

## CO[C@@]12C(COC(N)=O)C3=C(C(=O)C(C)=C(OCCN4CCOCC4)C3=O)N1CC1NC12 (some centres not stated)
P388 [9]
  minimal effective dose at 3.2 mg/kg: < 0.05 mg/kg
B16 [1]
  T/C: 113%
P388 [10]
  T/C: 256%
[4]
  logP: 0.49

## CO[C@@]12C(COC(N)=O)C3=C(C(=O)C(C)=C(OCC4CCCO4)C3=O)N1CC1NC12 (some centres not stated)
B16 [14]
  T/C: 133%
P388 [11]
  minimal effective dose at 0.8 mg/kg: < 0.05 mg/kg
B16 [17]; 0.8 mg/kg
  T/C: 212% and 198%
B16 [20]
  T/C: 147%
[4]
  logP: 1.29
B16 [18]
  minimal effective dose at 0.8 mg/kg: 0.2 mg/kg
  MED: 0.2 mg/kg
P388 [12]
  T/C: 239%

## COC1=C(C)C(=O)C2=C(C1=O)[C@@H](COC(N)=O)[C@@]1(OC)[C@H]3N[C@H]3CN21 [MITOMYCIN A]
P388 [9]
  minimal effective dose at 3.2 mg/kg: 0.05 mg/kg
P388 [10]
  T/C: 180%
[4]
  logP: 0.26
B16 [21]
  T/C: 177%
B16 [22]
  minimal effective dose at 0.3 mg/kg: 0.05 mg/kg

## CO[C@@]12C(COC(N)=O)C3=C(C(=O)C(C)=C(OCCOCCO)C3=O)N1CC1NC12 (some centres not stated)
P388 [7]
  T/C: 210%
B16 [17]
  T/C: >265%
B16 [23]
  minimal effective dose at 0.8 mg/kg: 0.4 mg/kg
P388 [24]
  minimal effective dose at 0.4 mg/kg: 0.1 mg/kg

## CO[C@@]12C(COC(N)=O)C3=C(C(=O)C(C)=C(OC(C)C)C3=O)N1CC1NC12 (some centres not stated)
P388 [10]
  T/C: 174%
[4]
  logP: 1.26

## CO[C@@]12C(COC(N)=O)C3=C(C(=O)C(C)=C(OCCN(C)C)C3=O)N1CC1NC12 (some centres not stated)
P388 [9]
  minimal effective dose at 3.2 mg/kg: < 0.025 mg/kg
B16 [25]
  minimal effective dose at 1.6 mg/kg: 0.4 mg/kg
B16 [26]
  T/C: 220%
P388 [10]
  T/C: 281%
[4]
  logP: 0.46

Reference: ChEMBL document CHEMBL1123664, “Preparation and antitumor activity of new mitomycin A analogues” (J Med Chem, 1987)
